Assay [1] has as its target T1, baculovirus-expressed ALK (Homo sapiens, UniProt Q9UM73).
T1 construct: host or cells: baculovirus expression system
The experiment in a line: ALK Kinase Assay (ELISA-type, time-resolved fluorescence). It is filed as biochemical. Conditions: 1 μM ATP (Km level); read-out: ALK Activity (ALK Kinase Inhibition, IC50). The method in brief:
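Wells were coated with phospholipase C-γ at 10 μg/mL in Tris-buffered saline. Adding 30 ng/ml enzyme started the reaction, which ran at 37° C for 15 minutes before Eu-N1 PT66 antibody detection. Percent inhibition versus log10 concentration gave IC50 by variable-slope fit.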
(In general: In an ELISA, binding on a coated surface is turned into a signal by an enzyme label.)

The target of assay [2] is T2, c-Met (cytoplasmic domain) (Homo sapiens, UniProt P08581).
T2 construct: 10 ng/mL c-Met (cytoplasmic domain, Invitrogen Corporation #PV3143); purchased Invitrogen Corporation PV3143
T2 sequence (P08581 956-1390 limits assumed): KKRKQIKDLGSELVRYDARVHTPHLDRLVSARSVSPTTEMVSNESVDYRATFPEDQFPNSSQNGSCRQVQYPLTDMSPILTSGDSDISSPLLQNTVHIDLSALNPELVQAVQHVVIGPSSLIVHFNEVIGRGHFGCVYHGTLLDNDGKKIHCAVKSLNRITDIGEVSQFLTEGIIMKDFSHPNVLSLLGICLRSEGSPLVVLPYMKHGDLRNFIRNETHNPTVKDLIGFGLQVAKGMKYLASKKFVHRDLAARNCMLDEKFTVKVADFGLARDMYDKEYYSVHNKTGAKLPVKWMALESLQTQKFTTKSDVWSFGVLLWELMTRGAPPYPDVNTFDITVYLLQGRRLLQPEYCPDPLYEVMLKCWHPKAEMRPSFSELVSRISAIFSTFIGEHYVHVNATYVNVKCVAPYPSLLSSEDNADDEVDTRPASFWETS
The experiment in a line: c-Met Kinase Assay (same methods as for ALK, with modifications). Conditions: 1 μM ATP (Km level); read-out: cMet Activity (c-Met Kinase Inhibition, IC50). It is filed as biochemical. The method in brief: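 IC50 values were fitted by variable-slope sigmoidal regression of percent inhibition against log compound concentration. Phosphorylation was read with Eu-N1 PT66 antibody after a 15 min, 37 °C reaction. The reaction was initiated with 10 ng/mL c-Met cytoplasmic domain on wells coated with 10 μg/mL PLC-γ in TBS.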

Each structure is given as a SMILES string.

T1 sequence (Q9UM73 19-1620): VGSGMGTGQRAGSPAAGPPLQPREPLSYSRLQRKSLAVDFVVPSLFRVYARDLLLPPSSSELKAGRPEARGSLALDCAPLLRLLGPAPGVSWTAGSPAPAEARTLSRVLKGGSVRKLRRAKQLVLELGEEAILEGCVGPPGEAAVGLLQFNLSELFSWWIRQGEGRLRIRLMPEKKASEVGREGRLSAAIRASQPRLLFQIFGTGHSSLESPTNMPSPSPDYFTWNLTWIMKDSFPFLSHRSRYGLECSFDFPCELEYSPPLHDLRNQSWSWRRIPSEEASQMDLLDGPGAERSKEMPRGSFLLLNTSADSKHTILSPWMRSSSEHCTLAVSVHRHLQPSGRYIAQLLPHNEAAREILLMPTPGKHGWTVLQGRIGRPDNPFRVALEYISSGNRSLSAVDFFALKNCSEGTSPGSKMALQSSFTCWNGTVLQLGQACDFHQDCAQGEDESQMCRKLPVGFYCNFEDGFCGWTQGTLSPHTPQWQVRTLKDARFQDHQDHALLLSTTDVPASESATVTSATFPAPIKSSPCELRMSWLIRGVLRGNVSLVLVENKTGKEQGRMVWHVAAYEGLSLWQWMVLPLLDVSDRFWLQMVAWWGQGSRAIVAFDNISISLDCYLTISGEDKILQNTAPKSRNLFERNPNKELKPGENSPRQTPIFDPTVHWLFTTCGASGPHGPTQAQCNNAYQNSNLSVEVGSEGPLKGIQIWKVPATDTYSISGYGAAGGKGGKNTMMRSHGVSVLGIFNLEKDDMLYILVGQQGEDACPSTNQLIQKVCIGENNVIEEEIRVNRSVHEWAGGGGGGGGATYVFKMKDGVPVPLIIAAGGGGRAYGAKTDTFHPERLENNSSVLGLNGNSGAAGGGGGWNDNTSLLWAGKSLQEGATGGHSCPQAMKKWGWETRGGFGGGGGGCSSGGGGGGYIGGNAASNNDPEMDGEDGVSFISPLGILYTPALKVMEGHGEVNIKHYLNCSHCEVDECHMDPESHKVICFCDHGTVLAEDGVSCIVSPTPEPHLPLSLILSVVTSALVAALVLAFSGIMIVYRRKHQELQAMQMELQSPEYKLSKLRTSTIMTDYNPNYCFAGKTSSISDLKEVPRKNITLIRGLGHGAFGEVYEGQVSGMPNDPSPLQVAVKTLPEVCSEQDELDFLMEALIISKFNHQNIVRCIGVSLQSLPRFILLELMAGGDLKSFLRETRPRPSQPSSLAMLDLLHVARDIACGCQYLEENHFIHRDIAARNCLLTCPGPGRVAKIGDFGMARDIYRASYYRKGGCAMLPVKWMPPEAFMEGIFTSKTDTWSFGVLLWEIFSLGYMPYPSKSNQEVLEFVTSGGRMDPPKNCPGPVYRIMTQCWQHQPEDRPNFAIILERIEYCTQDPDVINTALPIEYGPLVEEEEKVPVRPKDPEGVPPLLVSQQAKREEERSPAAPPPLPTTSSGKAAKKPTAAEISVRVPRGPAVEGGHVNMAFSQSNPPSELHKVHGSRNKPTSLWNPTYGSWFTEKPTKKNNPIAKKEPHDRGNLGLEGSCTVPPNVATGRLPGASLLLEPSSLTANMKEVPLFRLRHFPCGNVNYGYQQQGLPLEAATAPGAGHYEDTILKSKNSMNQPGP

As usually defined, the IC50 is the point on the concentration scale where inhibition reaches its midpoint. As for `COCCN1CCc2ccc(Nc3ncc(Cl)c(Nc4ccccc4-c4ncccc4C)n3)cc2CC1` [Example 972, 5-Chloro-N*2*-[3-(2-methoxy-ethyl)-2,3,4,5-tetrahydro-1H-benzo[d]azepin-7-yl]-N*4*-[2-(3-methyl-pyridin-2-yl)-phenyl]-pyrimidine-2,4-diamine], the IC50 in assay [1] is less than 0.1 µM; in assay [2], 0.1 to 1 µM.
The like results for `Cc1nnc(-c2ccccc2Nc2nc(Nc3ccc4c(c3)C(C)(C)CCC(=O)N4)ncc2Cl)s1` [Example 973, 7-{5-Chloro-4-[2-(5-methyl-[1,3,4]thiadiazol-2-yl)-phenylamino]-pyrimidin-2-ylamino}-5,5-dimethyl-1,3,4,5-tetrahydro-benzo[b]azepin-2-one] were, in that order, 0.1 to 1 µM and 1 to 10 µM.
The like results for `COCCN1CCc2ccc(Nc3ncc(Cl)c(Nc4ccccc4-c4nnc(C)s4)n3)cc2CC1` [Example 974, 5-Chloro-N*2*-[3-(2-methoxy-ethyl)-2,3,4,5-tetrahydro-1H-benzo[d]azepin-7-yl]-N*4*-[2-(5-methyl-[1,3,4]thiadiazol-2-yl)-phenyl]-pyrimidine-2,4-diamine] were, in that order, 0.1 to 1 µM and 0.1 to 1 µM.
The like results for `CC1(C)CCC(=O)Nc2ccc(Nc3ncc(Cl)c(Nc4ccccc4-c4cnccn4)n3)cc21` [Example 975] were, in that order, less than 0.1 µM and 1 to 10 µM.
For the compound `CC1(C)CCC(=O)Nc2ccc(Nc3ncc(Cl)c(Nc4ccccc4-c4ncccn4)n3)cc21` [Example 976, 7-[5-Chloro-4-(2-pyrimidin-2-yl-phenylamino)-pyrimidin-2-ylamino]-5,5-dimethyl-1,3,4,5-tetrahydro-benzo[b]azepin-2-one], the values for the IC50 in assay [1] and in assay [2] were less than 0.1 µM and more than 10 µM, respectively.
The like results for `COCCN1CCc2ccc(Nc3ncc(Cl)c(Nc4ccccc4-c4ncccn4)n3)cc2CC1` [Example 977, 5-Chloro-N*2*-[3-(2-methoxy-ethyl)-2,3,4,5-tetrahydro-1H-benzo[d]azepin-7-yl]-N*4*-(2-pyrimidin-2-yl-phenyl)-pyrimidine-2,4-diamine] were, in that order, less than 0.1 µM and 0.1 to 1 µM.
The like results for `CC1(C)CCC(=O)Nc2ccc(Nc3ncc(Cl)c(Nc4ccccc4-c4nccs4)n3)cc21` [Example 978, 7-[5-Chloro-4-(2-thiazol-2-yl-phenylamino)-pyrimidin-2-ylamino]-5,5-dimethyl-1,3,4,5-tetrahydro-benzo[b]azepin-2-one] were, in that order, less than 0.1 µM and more than 10 µM.
As to `COCCN1CCc2ccc(Nc3ncc(Cl)c(Nc4ccccc4-c4nccs4)n3)cc2CC1` [Example 979, 5-Chloro-N*2*-[3-(2-methoxy-ethyl)-2,3,4,5-tetrahydro-1H-benzo[d]azepin-7-yl]-N*4*-(2-thiazol-2-yl-phenyl)-pyrimidine-2,4-diamine], the IC50 was less than 0.1 µM in assay [1] and 0.1 to 1 µM in assay [2].
Take `COCCn1ccnc1-c1ccccc1Nc1nc(Nc2ccc3c(c2)C(C)(C)CCC(=O)N3)ncc1Cl` [Example 980, 7-(5-Chloro-4-{2-[1-(2-methoxy-ethyl)-1H-imidazol-2-yl]-phenylamino}-pyrimidin-2-ylamino)-5,5-dimethyl-1,3,4,5-tetrahydro-benzo[b]azepin-2-one]: the IC50 in assay [1] is 0.1 to 1 µM; in assay [2], more than 10 µM.
The like results for `COCCN1CCc2ccc(Nc3ncc(Cl)c(Nc4ccccc4-c4nccn4CCOC)n3)cc2CC1` [Example 981, 5-Chloro-N*4*-{2-[1-(2-methoxy-ethyl)-1H-imidazol-2-yl]-phenyl}-N*2*-[3-(2-methoxy-ethyl)-2,3,4,5-tetrahydro-1H-benzo[d]azepin-7-yl]-pyrimidine-2,4-diamine] were, in that order, 0.1 to 1 µM and 1 to 10 µM.
With `CCN1C(=O)CCCc2c1ccc(Nc1ncc(Cl)c(Nc3ccccc3-c3nccn3C)n1)c2OC` [Example 983, 7-{5-Chloro-4-[2-(1-methyl-1H-imidazol-2-yl)-phenylamino]-pyrimidin-2-ylamino}-1-ethyl-6-methoxy-1,3,4,5-tetrahydro-benzo[b]azepin-2-one], the IC50 is less than 0.1 µM in assay [1] and more than 10 µM in assay [2].
For `CCN1C(=O)CCCc2c1ccc(Nc1ncc(Cl)c(Nc3ccccc3-c3ncccc3C)n1)c2OC` [Example 984, 7-{5-Chloro-4-[2-(3-methyl-pyridin-2-yl)-phenylamino]-pyrimidin-2-ylamino}-1-ethyl-6-methoxy-1,3,4,5-tetrahydro-benzo[b]azepin-2-one], the results for the IC50 in assay [1] and in assay [2] were less than 0.1 µM and more than 10 µM, respectively.
The like results for `COCCN1CCc2cc(Nc3ncc(Cl)c(Nc4ccccc4-c4nccn4C)n3)c(OC)cc2CC1` [Example 986, 5-Chloro-N*2*-[8-methoxy-3-(2-methoxy-ethyl)-2,3,4,5-tetrahydro-1H-benzo[d]azepin-7-yl]-N*4*-[2-(1-methyl-1H-imidazol-2-yl)-phenyl]-pyrimidine-2,4-diamine] were, in that order, less than 0.1 µM and more than 10 µM.
The like results for `COCCN1CCc2cc(Nc3ncc(Cl)c(Nc4ccccc4-c4ncccc4C)n3)c(OC)cc2CC1` [Example 987, 5-Chloro-N*2*-[8-methoxy-3-(2-methoxy-ethyl)-2,3,4,5-tetrahydro-1H-benzo[d]azepin-7-yl]-N*4*-[2-(3-methyl-pyridin-2-yl)-phenyl]-pyrimidine-2,4-diamine] were, in that order, less than 0.1 µM and more than 10 µM.
The like results for `CC1(C)CCC(=O)Nc2ccc(Nc3ncc(Cl)c(Nc4ccccc4-c4cc(=O)[nH]c(=O)[nH]4)n3)cc21` [Example 988, 6-{2-[5-Chloro-2-(5,5-dimethyl-2-oxo-2,3,4,5-tetrahydro-1H-benzo[b]azepin-7-ylamino)-pyrimidin-4-ylamino]-phenyl}-1H-pyrimidine-2,4-dione] were, in that order, 1 to 10 µM and more than 10 µM.
`COc1cccnc1-c1ccccc1Nc1nc(Nc2ccc3c(c2)C(C)(C)CCC(=O)N3)ncc1Cl` [Example 989, 7-{5-Chloro-4-[2-(3-methoxy-pyridin-2-yl)-phenylamino]-pyrimidin-2-ylamino}-5,5-dimethyl-1,3,4,5-tetrahydro-benzo[b]azepin-2-one]: the figures for the IC50 in assay [1] and in assay [2] were less than 0.1 µM and 0.1 to 1 µM, respectively.
Consider `COCCN1CCc2ccc(Nc3ncc(Cl)c(Nc4ccccc4-c4ncccc4OC)n3)cc2CC1` [Example 990, 5-Chloro-N*2*-[3-(2-methoxy-ethyl)-2,3,4,5-tetrahydro-1H-benzo[d]azepin-7-yl]-N*4*-[2-(3-methoxy-pyridin-2-yl)-phenyl]-pyrimidine-2,4-diamine], for which the IC50 in assay [1] was less than 0.1 µM; in assay [2] it was 0.1 to 1 µM.
The like results for `CC1(C)CCC(=O)Nc2ccc(Nc3ncc(Cl)c(Nc4ccccc4-c4ncccc4C(F)(F)F)n3)cc21` [Example 991, 7-{5-Chloro-4-[2-(3-trifluoromethyl-pyridin-2-yl)-phenylamino]-pyrimidin-2-ylamino}-5,5-dimethyl-1,3,4,5-tetrahydro-benzo[b]azepin-2-one] were, in that order, 0.1 to 1 µM and more than 10 µM.
In the case of `COCCN1CCc2ccc(Nc3ncc(Cl)c(Nc4ccccc4-c4ncccc4C(F)(F)F)n3)cc2CC1` [Example 992, 5-Chloro-N*2*-[3-(2-methoxy-ethyl)-2,3,4,5-tetrahydro-1H-benzo[d]azepin-7-yl]-N*4*-[2-(3-trifluoromethyl-pyridin-2-yl)-phenyl]-pyrimidine-2,4-diamine], the IC50 in assay [1] was less than 0.1 µM; in assay [2] it was 1 to 10 µM.
The like results for `CC1(C)CCC(=O)Nc2ccc(Nc3ncc(Cl)c(Nc4cccc(-c5cccnc5)c4)n3)cc21` [Example 993, 7-[5-Chloro-4-(3-pyridin-3-yl-phenylamino)-pyrimidin-2-ylamino]-5,5-dimethyl-1,3,4,5-tetrahydro-benzo[b]azepin-2-one] were, in that order, 0.1 to 1 µM and 1 to 10 µM.
The like results for `Cn1ccnc1-c1ccccc1Nc1nc(Nc2ccc3c(c2)CCCC(=O)N3)ncc1Cl` [Example 994, 7-{5-Chloro-4-[2-(1-methyl-1H-imidazol-2-yl)-phenylamino]-pyrimidin-2-ylamino}-1,3,4,5-tetrahydro-benzo[b]azepin-2-one] were, in that order, less than 0.1 µM and more than 10 µM.
The like results for `CN1C(=O)CCCc2cc(Nc3ncc(Cl)c(Nc4ccccc4-c4nccn4C)n3)ccc21` [Example 995, 7-{5-Chloro-4-[2-(1-methyl-1H-imidazol-2-yl)-phenylamino]-pyrimidin-2-ylamino}-1-methyl-1,3,4,5-tetrahydro-benzo[b]azepin-2-one] were, in that order, less than 0.1 µM and 0.1 to 1 µM.
Consider `CCN1C(=O)CCCc2cc(Nc3ncc(Cl)c(Nc4ccccc4-c4nccn4C)n3)c(OC)cc21` [Example 996, 7-{5-Chloro-4-[2-(1-methyl-1H-imidazol-2-yl)-phenylamino]-pyrimidin-2-ylamino}-1-ethyl-8-methoxy-1,3,4,5-tetrahydro-benzo[b]azepin-2-one], for which the IC50 is less than 0.1 µM in assay [1] and more than 10 µM in assay [2].
The like results for `O=C1CCCc2cc(Nc3ncc(Cl)c(Nc4ccccc4-c4cnco4)n3)ccc2N1` [Example 997, 7-[5-Chloro-4-(2-oxazol-5-ylphenylamino)-pyrimidin-2-ylamino]-1,3,4,5-tetrahydro-benzo[b]azepin-2-one] were, in that order, 0.1 to 1 µM and 0.1 to 1 µM.
The like results for `COc1ccc2c(c1Nc1ncc(Cl)c(Nc3ccccc3-c3nccn3C)n1)NC(=O)CCC2(C)C` [Example 998, 9-{5-Chloro-4-[2-(1-methyl-1H-imidazol-2-yl)-phenylamino]-pyrimidin-2-ylamino}-8-methoxy-5,5-dimethyl-1,3,4,5-tetrahydro-benzo[b]azepin-2-one] were, in that order, more than 10 µM and more than 10 µM.
